Assay [1] concerns SARG-1 over-expressing PC12 cells. Briefly: Viability of SARG-1 over-expressing PC12 cultures treated with kinase inhibitors. As to conditions: staurosporine at 100 nM, in comparison to vector control cultures. In kind it is cell-based, rat. The source says:
(§1) To examine the expression and function of SARG-1 in a neural cell culture system, standard molecular biology techniques (Sanbrook et al, 1989) were used to clone the rat SARG-1 coding sequence (rSARG-1479) into the pIRESII-EGFP eukaryotic expression vector (Clontech) under the control of a CMV promoter which bicistroni-cally translates through an internal IRES sequence both SARG-1477 and enhanced green fluorescent protein. The rat pheochromocytoma PC12 cell line was maintained in DMEM supplemented with 8% horse serum, 8% fetal calf serum and an antibiotic-antimycotic mix containing 100 units/ml penicillin, 100 μg/ml streptomycin, and 0.25 μg/ml amphotericin B (all from GibcoBRL) in a fully humidified air atmosphere containing 5% CO2 at 37° C. Semi-confluent cultures in 6-well plates were transfected with pIRES2-EGFP-SARG-1 or empty vector for 18 h in the presence of the uptake enhancing cationic lipid mix pFx1 (Invitrogen) at a 6:1 lipid to DNA ratio in serum-free opti-MEN (Gibco). Stable transfectant colonies were picked from separate wells after selection in […] geneticin (Gibco) and clones with similar EGFP fluorescence expanded from independent transfections.
(§2) Over-expression of SARG-1 also enhances terminal differentiation of PC12 cells induced by nerve growth factor (FIG. 14).

Assay [2] concerns PC12 cells transfected with empty vector. Briefly: Vector control PC12 cultures treated with staurosporine. In kind it is cell-based, rat. As to conditions: 100 nM.
Excerpt: as §1, §2

The test system of assay [3] is SARG-1 over-expressing PC12 cells. The assay can be described thus: Flow cytometrical cell cycle analysis of transfected PC12 cells. In kind it is cell-based, rat. The following applies: 100 nM, 24 h, ethanol fixed cells.
Excerpt: as §2
A general note: Flow cytometry measures light scatter and fluorescence of single cells or particles in a stream.

The test system of a further assay is PC12 cells. The following applies: cited from earlier work.

“Also recorded” adds a separate entry of the source.

With `CN(C)CCCn1cc(C2=C(c3c[nH]c4ccccc34)C(=O)NC2=O)c2ccccc21` [Bisindolylmaleimide I], the “effect on viability / cell death” value in assay [1] was “No similar effects”.
Regarding `COC(=O)[C@@]1(O)C[C@H]2O[C@]1(C)n1c3ccccc3c3c4c(c5c6ccccc6n2c5c31)C(=O)NC4` [X252a], the “effect on viability / cell death” value in assay [1] was “No similar effects”.
Take `CN[C@@H]1C[C@H]2O[C@@](C)([C@@H]1OC)n1c3ccccc3c3c4c(c5c6ccccc6n2c5c31)C(=O)NC4` [staurosporine]: in assay [2], the “effect on vector control cultures” value is on record as “neurite outgrowth”. Moreover, the “flow cytometry: sub G0/G1 peak / loss of DNA characteristic of apoptosis” value in assay [3] is listed as “sub G0/G1 peak characteristic for the induction of apoptosis is seen only in SARG-1 over-expressing cells; also recorded: loss of DNA from ethanol fixed cells”. In addition, the concentration inducing apoptosis result in the assay on PC12 cells (Fu et al, 1999) is listed as “above 1 mM”. In the assay with PC12 cells (Hashimoto and Hagino, 1989), the “concentration inducing neurite outgrowth” value was 100 nM. In assay [1], the “effect on viability / cell death” value is reported as “rapid loss in viability”.
For `COc1cccc(-c2cc(=O)c3ccccc3o2)c1N` [PD 98059], in assay [1], the “effect on viability / cell death” value was “No similar effects”.

These data come from patent US7208270B2, “Method for diagnosing a person having multiple sclerosis” (priority 2001, dated 2007).
